Assay results taken from US20210046114A1, “HPV IMMUNOTHERAPY” (The Council of the Queensland Institute of Medical Research, priority 2018, published 2021).

Experiments:
[1] = system: HPV-specific T cells from HNC patients; assay: HPV T-cell epitope mapping by intracellular cytokine staining (ICS); assay type: cell-based, human; conditions: for T cell specificity: epitopes mapped in HNC patient T cells, Table 1; for epitope identified by fine-mapping: FIG. 5 and FIG. 6
Experimental: (§1) Peripheral blood mononuclear cells (PBMCs) from HNC patients were isolated and stimulated with HPV antigen pepmix peptide pools for either HPV16 or HPV18 in separate cultures and prepared for the intracellular cytokine staining (ICS) assay, as described above (non-stimulated controls were run in parallel). T cell response to the pepmix peptide pools was analyzed to identify individual peptides. These individual peptides were further assessed for T cell expansion and ICS analysis to identify potential epitopes. Once the 15mer peptide was identified, further mimimalization of the epitope sequence was carried out to identify the optimal T cell epitope sequence. The 15mer peptide sequences were trimmed from both N- and C-terminus to a minimal of 9-14 amino acid long peptides. Once the minimal peptide sequence was identified, further confirmation was carried out using limiting dose titration ICS assay. After mapping minimal epitope sequence, the HLA restriction of the epitope was identified by stimulating T cells using peptide loaded HLA-matched and mismatched PHA blasts (PHA).
Representative data showing that HPV-specific T cells from HNC patients recognized HPV16-E6, HPV18-E6 antigens can be found in FIGS. 1 and 2, respectively. In order to map the T cell epitope, further analysis was carried out using sub pools of E6 peptides. […] When analyzed on an HPV peptide matrix layout, the common peptide sequence among the responding pools was identified.

[2] = system: HPV-specific T cells / HLA-matched and mismatched PHA blasts; assay: HLA restriction mapping with peptide loaded HLA-matched and mismatched PHA blasts; assay type: cell-based, human; conditions: epitopes mapped in HNC patient T cells, Table 1
Experimental: as §1

Row | Sequence | T cell specificity [1] | HLA restriction [2] | epitope identified by fine-mapping [1]
1 | AFRDLCIVY (listed as Human papillomavirus) | CD8^+ | – | –
2 | DRAHYNIVTF (listed as Human papillomavirus) | CD8^+ | – | –
3 | EKQRHLDKKQRFHNIRGRWTGRCMSCC (listed as Human papillomavirus) | CD4^+ | DRB115:01 | –
4 | FELSQMVQW (listed as Human papillomavirus) | CD8^+ | – | –
5 | FRDLCIVYR (listed as Human papillomavirus) | CD8^+ | – | –
6 | GRWTGRCMSC (listed as Human papillomavirus) | CD8^+ | – | –
7 | HDIILECVY (listed as Human papillomavirus) | CD8^+ | – | –
8 | HIDYWKHMRLECALY (listed as Human papillomavirus) | CD4^+ | DQB1*03:01 | –
9 | IRCINCQKPL (listed as Human papillomavirus) | CD8^+ | – | –
10 | KLPQLCTEL (listed as Human papillomavirus) | CD8^+ | – | –
11 | KQRFHNIRGRWTGRC | – | – | fine CD4 epitope-mapping of HPV16-E6 pools identified
12 | LEDLLMGTLGI (listed as Human papillomavirus) | CD8^+ | – | –
13 | LLMGTLGIV | CD8^+ | – | –
14 | LQDVSLEVYL (listed as Human papillomavirus) | CD8^+ | – | –
15 | NLDTASTTL (listed as Human papillomavirus) | CD8^+ | – | –
16 | RCINCQKPLCPEEKQRHLD (listed as Human papillomavirus) | CD4^+ | DRB115:01 | –
17 | RPFKSNKST (listed as Human papillomavirus) | CD8^+ | – | –

Row | Sequence | T cell specificity [1] | HLA restriction [2] | epitope identified by fine-mapping [1]
18 | SAFRCFIVY (listed as Human papillomavirus) | CD8^+ | – | –
19 | SEIAYKYAQ (listed as Human papillomavirus) | CD8^+ | – | –
20 | SPATAFTVY (listed as Human papillomavirus) | CD8^+ | – | –
21 | SVDSAPILTAFNSSH (listed as Human papillomavirus) | CD4^+ | DQB1*03:01 | –
22 | TIHDIILECV (listed as Human papillomavirus) | CD8^+ | – | –
23 | TLLQQYCLYL | CD8^+ | – | –
24 | TLQDVSLEVYL (listed as Human papillomavirus) | CD8^+ | – | –
25 | TPTLHEYMLDLQPETTDLY (listed as Human papillomavirus) | CD4^+ | DQB1*03:01 | –
26 | TVLELTEVFEF (listed as Human papillomavirus) | CD8^+ | – | –
27 | TVLELTEVFEFA (listed as Human papillomavirus) | CD8^+ | – | HPV18-E6 CD^+ T cell epitope
28 | VQSTHVDIRTLEDLLMGTL (listed as Human papillomavirus) | CD4^+ | DQB1*03:01 | –
29 | VWEVHAGGQVI (listed as Human papillomavirus) | CD8^+ | – | –
30 | VYDYAFRDLCIVYRDGNPYAVCD (listed as Human papillomavirus) | CD4^+ | DRB115:01 | –
31 | WKSFFSRTWSRLSLH (listed as Human papillomavirus) | CD4^+ | DRB1*04:01 | –
32 | WPTTPPRPI (listed as Human papillomavirus) | CD8^+ | – | –
33 | YEQLNDSSEEEDEID (listed as Human papillomavirus) | CD4^+ | DQB1*03:01 | –
